Experiment [1] deals with mammary and salivary carcinomas. Particulars: daily administration, ras transgenic mice; cited from earlier work.
The target of experiment [2] is T1, SF9 affinity purified rat farnesyl protein transferase (Rattus norvegicus, UniProt Q02293+Q04631).
T1 construct: made in house; host or cells: Sf9 insect cells
As to the kind of experiment: PFT (farnesyl protein transferase) inhibitory activity assay. The experiment is classed as biochemical. The procedure: The protein:farnesyl transferase (PFT) or farnesyl protein transferase (FPT) inhibitory activity of compounds of the present invention were assayed in HEPES buffer (pH 7.4) containing 5 mM potassium phosphate and 20 μM ZnCl2. The solution also contained 5 mM DTT (dithiothreitol), 5 mM MgCl2, and 0.1% PEG 8000. Assays were performed in 96-well plates (Wallec) and employed solutions composed of varying concentrations of a compound of the present invention in 100% DMSO (dimethylsulfoxide). Upon addition of both substrates, radiolabeled farnesyl pyrophosphate ([1^3H], specific activity 15 to 30 Ci/mmol, final concentration 134 nM) and (biotinyl)-Ahe-Thr-Lys-Cys-Val-Ile-Met ([3aS[3a alpha, 4 beta, 6a alpha]-hexahydro-2-oxo-1H-thieno[3,4-d]imidazole-5-pentanoic acid]-[7-aminoheptanoic acid]-Thr-Lys-Cys-Val-Ile-Met) (Ahe is 7-amino-heptanoic acid, Thr is threonine, Lys is lysine, Cys is cysteine, Val is valine, Ile is isoleucine and Met is methionine) (final concentration 0.2 μM), the enzyme reaction was started by addition of SF9 affinity purified rat farnesyl protein transferase. After incubation at 30° C. for 30 minutes, the reaction was terminated by diluting the reaction 2.5-fold with a stop buffer containing 1.5 M magnesium acetate, 0.2 M H3PO4, 0.5% BSA (bovine serum albumin), and strepavidin beads (Amersham) at a concentration of 1.3 mg/mL. After allowing the plate to settle for 30 minutes at room temperature, radioactivity was quantitated on a microBeta counter (Model 1450, Wallec). The assay was also carried out without 5 mM potassium phosphate.

In experiment [3] the test system is H61 cells: N1H transformed 3T3 H-ras cells. Briefly: Clonogenic assay (soft agar, 6 well plates). It is filed as cell-based. Conditions: H-ras transformed NIH 3T3 cells, colonies counted after Day 13, read-out: Soft Agar IC50 (μM), inhibition of colony formation. The procedure: Clonogenic Assay (6 Well Plates)
Sometime previous to setting up an actual test:
1. Make up 1.5% Bacto Agar in Milli-Q water and autoclave.
2. Make up 500 mL 2×DMEM-HG without phenol red by combining the following:
1 bottle DMEM base powder (Sigma D-5030)
Adjust pH to 7.1 with HCl; filter sterilize.
1. Set up makeshift water bath (beaker of water with thermometer, on hot plate) in the hood. Keep water temperature between 37° C. to 43° C.
2. […] 1.5% Bacto Agar for approximately 2 minutes on high, or until completely melted. Then let it cool somewhat before using it. (You can keep it from resolidifying by setting the bottle on the hot plate.)
Depending on the volume of each layer needed, use either 50 mL conical tubes or 200 mL turnip tubes which can be floated in the “water bath”.
4. Add 1 mL of bottom layer agar/medium to each well: deliver 1 mL warm agar/medium to a well; then using the tip of the pipet, spread the agar/medium around to completely cover the bottom. Repeat with next well.
5. Allow the plates to set at room temperature for about 5 minutes until the bottom layer solidifies.
6. Label sterile Falcon 2054 (12×75 mm) tubes and add appropriate volume of drug solutions into them.
7. Aliquot 4 μL of DMSO or drug solution per 1 mL of agar/medium to appropriate tubes; then add the agar/medium/cells to each tube. Always add 1 mL more than will actually be needed. Mix up and down in the pipet (gently); then deliver 1 mL to the center of each well. The upper layer is less viscous, so it will generally spread out over the bottom layer unaided. If necessary, rotate the plane of the plate gently to spread the top layer evenly over the bottom layer.
8. Let plates set for 5 or 10 minutes at room temperature to solidify, then put into 5% CO2, 37° C. incubator.
9. On Day 13, add 0.5 mL of INT (tetrazolium 1 mg/mL in Milli-Q H2O, filter sterilized) and return plates to incubator.

Experiment [4] concerns ras protein farnesylation in ras-transformed cells (H-ras-transformed HIH 3T3 cells). As to the kind of experiment: Gel shift assay (inhibition of ras farnesylation in cells). It is filed as cell-based. Particulars: for Gel Shift (μM) M.E.D* (minimal effective dose to observe inhibition of ras farnesylation): ras-transformed cells, 18-hour incubation. The protocol:
Twenty-four hours after planting 2×10^6 ras-transformed cells per treatment condition, the farnesylation inhibitor is added at varying concentrations. Following an 18-hour incubation period, cells are lysed in phosphate-buffered saline containing 1% Triton X-100, 0.5% sodium deoxycholate, and 0.1% SDS (sodium dodecyl sulfate), pH 7.4 in the presence of several protease inhibitors (PMSF (phenylmethylsulfonylfluoride), antipain, leupeptin, pepstatin A, and aprotinin all at 1 μg/mL). Ras protein is immunoprecipitated from the supernatants by the addition of 3 μg v-H-ras Ab-2 (Y13-259 antibody from Oncogene Science). After overnight immunoprecipitation, 30 μL of a 50% protein G-Sepharose slurry (Pharmacia) is added followed by 45-minute incubation. Pellets are resuspended in 2×tris-glycine loading buffer (Novex) containing 5% β-mercaptoethanol and then denatured by 5 minutes boiling prior to electrophoresis on 14% Tris-glycine SDS gels. Using Western transfer techniques, proteins are transferred to nitrocellulose membranes followed by blocking in blocking buffer. Upon overnight incubation with primary antibody (pan-ras Ab-2 from Oncogene Science), an antimouse HRP (horse radish peroxidase) conjugate secondary antibody (Amersham) is employed for detection of the ras protein. Blots are developed using ECL(enhanced chemiluminescence) techniques (Amersham).

Experiment [5] deals with EJ-1 human bladder carcinoma, HT1080 human fibrosarcoma, and human colon carcinoma xenografts. Conditions: 100 mg/kg, nude mice; cited from earlier work.
Experiment [6] relates to human lung carcinoma with K-ras mutation and p53 deletion. Particulars: nude mice; cited from earlier work.
[7] abbreviates: HEPES buffer pH 7.4, without 5 mM potassium phosphate, read-out: IC50 (μM) Hepes.
Setting [8] is: HEPES buffer pH 7.4 containing 5 mM potassium phosphate, read-out: IC50 (μM) 5 mM PO4•^2 Hepes.
[9] abbreviates: Example 2 compared with Example 1.

One may read the IC50 as the concentration that inhibits the measured activity by half.

Read-outs that look alike come from different tables or passages of the source.

On to `CC[C@H](C)[C@@H](CO[C@@H](Cc1ccccc1)C(=O)N[C@@H](CCS(C)(=O)=O)C(=O)OC(C)C)NC[C@@H](N)CS` [L744,832], for which, in experiment [1], the “effect on mammary and salivary carcinomas” value was “tumor regression”.

With `CN(C(=O)[C@H](Cc1c[nH]cn1)NC(=O)OCc1ccccc1)[C@@H](Cc1ccc(OCc2ccccc2)cc1)C(=O)NCC(C)(C)c1ccccc1` [Example 3, [S-(R*,R*)]-[1-{[2-(4-Benzyloxy-phenyl)-1-(2-methyl-2-phenyl-propylcarbamoyl)-ethyl]-methyl-carbamoyl}-2-(1H-imidazol-4-yl)-ethyl]-carbamic acid benzyl ester], the 50% inhibitory concentration (IC50) in experiment [2] (setting [7]) was 0.31 µM; in experiment [2] (setting [8]), 0.007 µM; in experiment [3] (Mus musculus, NIH3T3, 312 h), 0.1 µM. In experiment [4], the “Gel Shift (μM) M.E.D* (minimal effective dose to observe inhibition of ras farnesylation)” value worked out at 0.05 µM.

Regarding `CN(C(=O)[C@H](Cc1cnc[nH]1)NC(=O)OCc1ccccc1)[C@@H](Cc1ccc(OCc2ccccc2)cc1)C(=O)NCC1(c2ccccc2)CCC1` (relative stereo) [Example 6, [S-(R*,R*)]-[1-{[2-4-Benzyloxy-phenyl)-1-[(1-phenyl-cyclobutylmethyl)-carbamoyl]-ethyl}-methyl-carbamoyl)-2-(3H-imidazol-4-yl)-ethyl]-carbamic acid benzyl ester], the IC50 in experiment [2] (setting [7]) came to 1.01 µM; in experiment [2] (setting [8]), 0.013 µM. The “Gel Shift (μM) M.E.D* (minimal effective dose to observe inhibition of ras farnesylation)” value in experiment [4] is reported as “≦0.05 μM”.

With `COC(=O)[C@H](CCSC)NC(=O)[C@H](/C=C\[C@@H](/C=C/[C@@H](N)CS)C(C)C)Cc1ccccc1` [Example B1086], the “tumor growth by xenografts” value in experiment [5] is “inhibit tumor growth”.

Regarding `CSCC[C@H](NC(=O)c1ccc(NC[C@@H](N)CS)cc1-c1ccccc1)C(=O)O` [FT1276], the “tumor growth of human lung carcinoma” value in experiment [6] is recorded as “selectively block tumor growth”.

With `CN(C(=O)[C@@H](Cc1c[nH]cn1)NC(=O)OCc1ccccc1)[C@@H](Cc1ccc(OCc2ccccc2)cc1)C(=O)NCCOCc1ccccc1` (relative stereo) [Example 1, [R-(R*,S*)]-[1-{[1-(2-Benzyloxy-ethylcarbamoyl)-2-(4-benzyloxy-phenyl)-ethyl]-methyl-carbamoyl}-2-(1H-imidazol-4-yl)-ethyl]-carbamic acid benzyl ester], the concentration for half-maximal inhibition (IC50) in experiment [2] (setting [7]) was found to be 7 µM; in experiment [2] (setting [8]), 0.4 µM; in experiment [3], 15.1 µM. Also, in experiment [2] (stated in words), the “activity as a ras farnesyl transferase inhibitor” value is given as “submicromolar”. Besides, in experiment [4], the “Gel Shift (μM) M.E.D* (minimal effective dose to observe inhibition of ras farnesylation)” value was found to be 1 µM.

Take `CN(C(=O)[C@H](Cc1c[nH]cn1)NC(=O)OCc1ccccc1)[C@@H](Cc1ccc(OCc2ccccc2)cc1)C(=O)NCCc1ccccc1` (relative stereo) [Example 2, [S-(R*,R*)]-[1-{[2-(4-Benzyloxy-phenyl)-1-phenethylcarbamoyl-ethyl]-methyl-carbamoyl}-2-(1H-imidazol-4-yl)-ethyl]-carbamic acid benzyl ester]: the “increase in activity against the enzyme” value in experiment [2] (setting [9]) came out at 10 fold. The IC50 amounted to 1.4 µM in experiment [2] (setting [7]), 0.032 µM in experiment [2] (setting [8]) and 0.58 µM in experiment [3]. The “increase in cellular activity” value in experiment [4] (setting [9]) is reported as 5 fold. Further, the “Gel Shift (μM) M.E.D* (minimal effective dose to observe inhibition of ras farnesylation)” value in experiment [4] was found to be 0.2 µM.

As to `CC(C)C[C@@H](C(=O)NCC(C)(C)c1ccccc1)N(C)C(=O)[C@H](Cc1cnc[nH]1)NC(=O)OCc1ccccc1` [Example 8, [S-(R*,R*)]-(2-(3H-Imidazol-4-yl)-1-{methyl-[3-methyl-1-(2-methyl-2-phenyl-propylcarbamoyl)-butyl]-carbamoyl}-ethyl)-carbamic acid benzyl ester], the IC50 in experiment [2] (setting [7]) is 1.76 µM; in experiment [2] (setting [8]) it was 0.01 µM. In addition, in experiment [4], the “Gel Shift (μM) M.E.D* (minimal effective dose to observe inhibition of ras farnesylation)” value is reported as “≦0.05 μM”.

Regarding `CN(Cc1ccccc1)C(=O)N[C@@H](Cc1c[nH]cn1)C(=O)N(C)[C@@H](Cc1ccc(OCc2ccccc2)cc1)C(=O)NCC(C)(C)c1ccccc1` [Example 5, [S-(R*,R*)]-2(3-Benzyl-3-methyl-ureido)-N-[2-(4-benzyloxy-phenyl)-1-(2-methyl-2-phenyl-propyl-carbamoyl)-ethyl]-3-(1H-imidazol-4-yl)-N-methyl-propionamide], the values for the IC50 in experiment [2] (setting [7]) and in experiment [2] (setting [8]) were 0.012 µM and 0.008 µM, respectively. Further, in experiment [4], the “Gel Shift (μM) M.E.D* (minimal effective dose to observe inhibition of ras farnesylation)” value is recorded as “≦0.05 μM”.

In the case of `CN(C(=O)[C@H](Cc1c[nH]cn1)NC(=O)OCc1ccccc1)[C@@H](Cc1ccc(OCc2ccccn2)cc1)C(=O)NCC(C)(C)c1ccccc1` [Example 4, [S-(R*,R*)]-[2-(1H-Imidazol-4-yl)-1-(methyl-{1-(2-methyl-2-phenyl-propylcarbamoyl)-2-[4-(pyridin-2-ylmethoxy)-phenyl]-ethyl}-carbamoyl)-ethyl]-carbamic acid benzyl ester], the results for the IC50 in experiment [2] (setting [7]) and in experiment [2] (setting [8]) were 0.38 µM and 0.006 µM, respectively. For the same compound, the “Gel Shift (μM) M.E.D* (minimal effective dose to observe inhibition of ras farnesylation)” value in experiment [4] is recorded as “≦0.05 μM”.

As to `CN(C(=O)[C@H](Cc1cnc[nH]1)NC(=O)OCc1ccccc1)[C@@H](Cc1ccccc1)C(=O)NCC(C)(C)c1ccccc1` [Example 7, [S-(R*,R*)]-(2-(3H-Imidazol-4-yl)-1-{methyl-[1-(2-methyl-2-phenyl-propyl-carbamoyl)-2-phenyl-ethyl]-carbamoyl}-ethyl)-carbamic acid benzyl ester], the results for the IC50 in experiment [2] (setting [7]) and in experiment [2] (setting [8]) were 0.26 µM and 0.005 µM, respectively. The “Gel Shift (μM) M.E.D* (minimal effective dose to observe inhibition of ras farnesylation)” value in experiment [4] is “≦0.05 μM”.

The values above are taken from US6737410B1, “Inhibitors of protein farnesyl transferase” (Warner-Lambert Company, priority 1997, dated 2004).
